# PMC5363571 (Oncotarget, 2016)
# Where a name gives a salt, the structure may show the parent alone.
# Target: T1, USP7 (Homo sapiens, UniProt Q93009)
# Assay: gel-based GST-UBA52 cleavage assay and Ub-AMC assay with USP7; supported by CETSA, DARTS and HA-Ub-VS competition in HO8910 lysate
# Assay type: biochemical
# Settings: not given
# T1 sequence (Q93009 whole entry): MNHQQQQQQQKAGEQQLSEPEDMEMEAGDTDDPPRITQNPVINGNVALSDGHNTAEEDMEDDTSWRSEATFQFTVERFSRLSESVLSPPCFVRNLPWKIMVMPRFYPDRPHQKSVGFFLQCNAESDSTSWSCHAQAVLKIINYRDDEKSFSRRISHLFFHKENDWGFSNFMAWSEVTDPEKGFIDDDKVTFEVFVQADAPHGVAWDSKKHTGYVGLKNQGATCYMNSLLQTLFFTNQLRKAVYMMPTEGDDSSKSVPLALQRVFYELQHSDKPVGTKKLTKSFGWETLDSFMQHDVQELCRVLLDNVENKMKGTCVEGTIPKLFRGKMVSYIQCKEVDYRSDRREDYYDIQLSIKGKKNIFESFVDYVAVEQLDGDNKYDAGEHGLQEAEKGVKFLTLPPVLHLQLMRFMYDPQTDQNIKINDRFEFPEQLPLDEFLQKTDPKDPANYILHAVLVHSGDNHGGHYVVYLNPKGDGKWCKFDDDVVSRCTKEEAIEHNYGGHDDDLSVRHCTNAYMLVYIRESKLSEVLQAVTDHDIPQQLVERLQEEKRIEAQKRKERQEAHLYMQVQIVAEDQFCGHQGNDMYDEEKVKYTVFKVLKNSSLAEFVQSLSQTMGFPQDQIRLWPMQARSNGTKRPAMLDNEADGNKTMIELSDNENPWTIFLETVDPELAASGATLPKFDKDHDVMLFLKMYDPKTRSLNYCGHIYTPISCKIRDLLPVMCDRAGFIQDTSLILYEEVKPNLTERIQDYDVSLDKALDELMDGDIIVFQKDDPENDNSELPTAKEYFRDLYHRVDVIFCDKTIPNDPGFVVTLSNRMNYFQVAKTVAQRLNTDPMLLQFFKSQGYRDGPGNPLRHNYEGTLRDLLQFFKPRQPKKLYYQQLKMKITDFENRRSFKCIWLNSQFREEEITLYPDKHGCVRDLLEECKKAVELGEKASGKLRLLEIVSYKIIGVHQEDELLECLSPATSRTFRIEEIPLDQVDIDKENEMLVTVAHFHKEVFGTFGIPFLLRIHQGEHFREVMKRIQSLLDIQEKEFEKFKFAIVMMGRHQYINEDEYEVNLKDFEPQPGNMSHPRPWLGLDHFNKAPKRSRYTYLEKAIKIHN
row,Structure (SMILES),IC50 [µM]
1,COC(=O)[C@]12CCC(C)(C)C[C@H]1[C@H]1C(=O)C=C3[C@@]4(C)C=C(C#N)C(=O)C(C)(C)[C@@H]4CC[C@@]3(C)[C@]1(C)CC2 [CDDO-Me],14.1

# Target: USP2 (Homo sapiens, UniProt O75604)
# Assay: in vitro deubiquitinase activity assay (Supplementary Figure S1)
# Assay type: biochemical
# Settings: not given
# USP2, sequence (O75604 whole entry): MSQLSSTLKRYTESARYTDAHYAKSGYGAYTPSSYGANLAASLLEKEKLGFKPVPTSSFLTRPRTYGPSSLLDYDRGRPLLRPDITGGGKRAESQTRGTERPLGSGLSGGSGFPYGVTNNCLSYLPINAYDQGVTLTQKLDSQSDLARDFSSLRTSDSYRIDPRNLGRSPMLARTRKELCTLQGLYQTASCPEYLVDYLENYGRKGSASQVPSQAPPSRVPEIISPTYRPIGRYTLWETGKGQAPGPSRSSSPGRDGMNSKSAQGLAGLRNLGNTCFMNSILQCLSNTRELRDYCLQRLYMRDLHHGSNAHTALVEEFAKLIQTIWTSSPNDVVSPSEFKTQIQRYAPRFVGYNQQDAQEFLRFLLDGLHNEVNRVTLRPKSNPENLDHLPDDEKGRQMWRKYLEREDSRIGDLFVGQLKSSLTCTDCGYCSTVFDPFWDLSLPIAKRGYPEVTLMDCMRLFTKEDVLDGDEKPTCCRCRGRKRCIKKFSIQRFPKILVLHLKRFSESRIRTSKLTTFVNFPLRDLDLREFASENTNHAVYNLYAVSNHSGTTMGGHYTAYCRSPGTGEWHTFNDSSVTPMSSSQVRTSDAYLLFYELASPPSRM
row,Structure (SMILES),IC50 [µM]
1,COC(=O)[C@]12CCC(C)(C)C[C@H]1[C@H]1C(=O)C=C3[C@@]4(C)C=C(C#N)C(=O)C(C)(C)[C@@H]4CC[C@@]3(C)[C@]1(C)CC2 [CDDO-Me],22.3

# Target: T1, USP7
# Assay: biochemical
# Parameters: Ub-AMC hydrolysis by recombinant USP7 (20 nM), 30 min pre-incubation, fluorescence read-out
# Settings: read-out: % Inhibition at 50 μM
row,Structure (SMILES),inhibition at 50 µM [%]
1,COC(=O)[C@]12CCC(C)(C)C[C@H]1[C@H]1C(=O)C=C3[C@@]4(C)C=C(C#N)C(=O)C(C)(C)[C@@H]4CC[C@@]3(C)[C@]1(C)CC2 [CDDO-Me],91.5
2,CC1(C)CC[C@]2(C(=O)O)CCC3=C([C@@H](CCl)C[C@@H]4[C@@]5(C)C[C@H](O)[C@H](O)[C@@](C)(C(=O)O)[C@@H]5CC[C@@]34C)[C@@H]2C1 [Senegenin],< 5
3,C[C@@H]1CCC[C@H](C)N1NC(=O)c1ccc(Cl)c(S(N)(=O)=O)c1 [Clopamide],< 5
4,O=C(O)/C=C/c1ccc(Cn2ccnc2)cc1 [Ozagrel],< 5
5,O=C(O)COCCN1CCN(C(c2ccccc2)c2ccc(Cl)cc2)CC1 (stereo not drawn) [Cetirizine 2HCl],< 5
6,CN1CCCCC1CCN1c2ccccc2Sc2ccc([S+](C)[O-])cc21 (stereo not drawn) [Mesoridazine besylate],16.5
7,NC(=O)OCC(COC(N)=O)c1ccccc1 [Felbamate],< 5
8,CCC(=O)O[C@]1(C(=O)CCl)[C@@H](C)C[C@H]2[C@@H]3CCC4=CC(=O)C=C[C@]4(C)[C@@]3(F)[C@@H](O)C[C@@]21C [Clobetasol propionate],42.3
9,CN(C)CCCN1c2ccccc2Sc2ccc(Cl)cc21 [Chlorpromazine HCl],< 5
10,O=C(c1ccc(F)cc1)C1CCN(CCn2c(=O)[nH]c3ccccc3c2=O)CC1 [Ketanserin tartrate],< 5
11,CCOC(=O)N1CCC(=C2c3ccc(Cl)cc3CCc3cccnc32)CC1 [Loratadine],20.4
12,CCN(CC)CCNC(=O)c1ccc(N)cc1 [Procainamide],< 5
13,O=C(O)c1cccnc1Nc1cccc(C(F)(F)F)c1 [Niflumic acid],< 5
14,CN1CCc2cccc3c2[C@H]1Cc1ccc(O)c(O)c1-3 [Apomorphine r (-)],< 5
15,NCC1(CC(=O)O)CCCCC1 [Gabapentin],< 5
16,CO[C@H](C(=O)[C@@H](O)[C@@H](C)O)[C@@H]1Cc2cc3cc(O[C@H]4C[C@@H](O[C@@H]5C[C@@H](O)[C@H](O)[C@@H](C)O5)[C@H](O)[C@@H](C)O4)c(C)c(O)c3c(O)c2C(=O)[C@H]1O[C@H]1C[C@@H](O[C@@H]2C[C@@H](O)[C@@H](O[C@@H]3C[C@](C)(O)[C@H](O)[C@@H](C)O3)[C@@H](C)O2)[C@H](O)[C@@H](C)O1 [Plicamycin],< 5
17,N[C@@H]1C[C@H]1c1ccccc1 (racemic) [Tranylcypromine],< 5
18,CC(C)NCC(O)c1ccc(NS(C)(=O)=O)cc1 (stereo not drawn) [Sotalol HCl],< 5
19,CC(C)(C)NCC(O)c1cc(Cl)c(N)c(Cl)c1 (stereo not drawn) [Clenbuterol],< 5

row,Structure (SMILES),inhibition at 50 µM [%]
1,CNCCCC12CCC(c3ccccc31)c1ccccc12 [Maprotiline HCl],11.3
2,CC1=C(/C=C/C(C)=C/C=C/C(C)=C/C(=O)O)C(C)(C)CCC1 [Retinoic acid],< 5
3,CC1(C)C[C@@H]1C(=O)N/C(=C\CCCCSC[C@H](N)C(=O)O)C(=O)O [Cilastatin],< 5
4,CCOC(=O)[N-]c1c[n+](N2CCOCC2)no1 [Molsidomine],< 5
5,COc1ccc2c(c1)[C@]13CCCC[C@@H]1[C@H](C2)N(C)CC3 [Dextromethorphan HBr],41.3
6,CN(C)C(=O)C(CCN1CCC(O)(c2ccc(Cl)cc2)CC1)(c1ccccc1)c1ccccc1 [Loperamide],< 5
7,CN(C)CCCN1c2ccccc2CCc2ccccc21 [Imipramine HCl],26.5
8,O=C(CCCN1CCC2(CC1)C(=O)NCN2c1ccccc1)c1ccc(F)cc1 [Spiperone],< 5
9,COc1ccc(CN(CCN(C)C)c2ccccn2)cc1 [Mepyramine maleate],< 5
10,O=P(O)(O)C(Cl)(Cl)P(=O)(O)O [Clodronate disodium],< 5
11,CC1(C)CC[C@]2(C(=O)O)CC[C@]3(C)C(=CC[C@@H]4[C@@]5(C)CC[C@H](O)[C@@](C)(CO)[C@@H]5CC[C@]43C)[C@@H]2C1 [Hederagenin],36.5
12,CCN1CCC[C@H]1CNC(=O)c1c(O)c(Cl)cc(Cl)c1OC [Raclopride l-tartrate s(-)],< 5
13,CCCCCN(CCCCC)C(=O)C(CCC(=O)O)NC(=O)c1ccc(Cl)c(Cl)c1 (stereo not drawn) [Lorglumide],< 5
14,CC(C)c1cccc(C(C)C)c1O [Propofol],< 5
15,O=C1CN2Cc3c(ccc(Cl)c3Cl)N=C2N1 [Anagrelide],8.4
16,CC(=O)[C@H]1CC[C@H]2[C@@H]3CC=C4C[C@@H](O)CC[C@]4(C)[C@H]3CC[C@]12C [Pregnenolone],< 5
17,CC(C(=O)O)c1cccc(C(=O)c2ccccc2)c1 (stereo not drawn) [Ketoprofen],< 5
18,C[C@@](Cc1ccc(O)c(O)c1)(NN)C(=O)O [Carbidopa],< 5
